Columns and labels:
Format in all cases: in vivo
Drosophila suzukii [1] = experiment: Anesthesia test, Drosophila suzukii; conditions: 2% in paraffin oil
Experimental: (§1) The devices used were similar to the devices for studying the courtship (example 1 above), except for the volume of the space into which the files were introduced, which was 45.24 or 22.62 cm^3. 9 discs of filter paper (Whatman, filter paper 42), each soaked in 10 μl of a composition comprising butyric acid and/or propionic acid and/or a derivative of propionic acid diluted in paraffin oil were deposited in the device. The different compositions used comprised, respectively, 2% propionic acid or 2% butyric acid or 5% ethyl propanoate or 10% ethyl propanoate or 30% ethyl propanoate. For each composition, the number of flies was, respectively, 30 and 24 males, 30 and 11 females for Drosophila melanogaster, and 24, 16 and 4 males, 28, 26, 6, 5 and 4 females for Drosophila suzukii. In order to avoid any contact of the flies with the soaked disks of paper, a gauze (netting) was arranged above said papers. The drosophilae could move freely on said gauze. The quantity of compound, butyric acid or propionic acid, or of ethyl propanoate (odor) volatilized in the behavior chamber was equivalent to that of the device used for the courtship. Likewise, the flies were never in direct contact with the composition (no taste perception), only with the volatile particles (olfactory perception). The flies tested were introduced simultaneously, by group, into the enclosure. Their behavior was filed for 10 minutes, and a time required for leading to anesthesia was calculated over this period, depending on the concentration of butyric acid or propionic acid or ethyl propanoate used. The flies were considered anesthetized when they stopped moving and fell on their side.

Drosophila melanogaster = experiment: Anesthesia test, Drosophila melanogaster; conditions: 2% in paraffin oil
Experimental: as §1

Drosophila suzukii [2] = experiment: Courtship of male Drosophila suzukii towards females, olfactory exposure; conditions: compared with solvent alone, 10 min observation
Experimental: Drosophilae (Drosophila melanogaster) aged from 3 to 9 days are used for the courtship tests according to the method described above.
Naive males were isolated in tubes, individually, upon emerging from their puparium.
The females were selected to be virgin and were stored in tubes of 10 individuals. These tubes were placed in an inclined manner in incubators, for which a temperature of 25° C. was kept constant. A 12 hour-12 hour day/night cycle was applied. The courtship tests were carried out in the morning, between 1 and 3 hours after the start of the day cycle.
At the time of the test, a 6 mm disk of filter paper (Whatman, filter paper 42) was deposited per alveolus of the device for studying the courtship behavior. Each alveolus was cylindrical, transparent and closed, and of a volume of 1.52 or 0.9 cm^3. FIG. 16 is a schematic representation of an alveolus of the device used.
The paper was then soaked in 10 μl of a composition of 0.1%, 0.5% or 1% propionic acid, or 0.1%, 0.5% or 1% butyric acid, or a mixture comprising 0.1% propionic acid and 0.1% butyric acid, 0.25% propionic acid and 0.25% butyric acid or 0.5% propionic acid and 0.5% butyric acid. A gauze (netting) makes it possible to physically isolate the drosophilae from the odor. 6 pairs (one per alveolus) were observed independently. Each pair was made up of one male and one intact female, each originating from the tubes mentioned above.
The behavior was filmed for 10 minutes, under white light, using a Sony HDR-XR550 camera. Each film was recorded and then analyzed. For each concentration of the compositions used, the number of pairs of flies was, respectively, 33, 39, 27, 38, 33, 27, 12, 6 and 12.
A negative control was carried out comprising only the solvent, i.e. paraffin oil, in order to verify the absence of an effect of the solvent on the flies.
A courtship percentage was calculated, and represents the time during which the male courts the female during the 10 minutes of observation (recording). The courtship of the Drosophila suzukii is decomposed into recognizable stereotypical events, and described precisely in scientific literature (Revadi S et al., Insects 2015 [4]). Statistical tests, i.e. a Kruskal-Wallis test followed by a post-hoc Dunn's Multiple Comparison Test, were carried out (GraphFad, Prism6) in order to evaluate the influence, on the behavior, of the composition in which the paper is soaked; this involving a release of volatile compounds and an odor perceived by the drosophilae.

Bactrocera oleae = experiment: Courtship of male Bactrocera oleae towards females, olfactory exposure
Experimental: 1. […] Insect Behay. 2012 [6] and Menage Cindy, personal communication). Naive males were isolated in tubes, individually, upon emerging from their puparium. The females were selected to be virgin and were stored in tubes, together. These tubes were placed in an inclined manner in incubators, for which a temperature of 25° C. was kept constant. A 12 hour/12 hour day/night cycle was applied. […] Each alveolus was cylindrical, transparent and closed, and of a volume of 5.9 cm^3. FIG. 16 is a schematic representation of an alveolus of the device used. • The papers were then each soaked in […] of a composition of 2%, 4% or 5% propionic acid. A gauze (netting) made it possible to physically isolate the B. ° lea from the odor corresponding to the propionic acid. 2 pairs (one per alveolus) were observed independently. Each pair was made up of one male and one female, each originating from the tubes mentioned above. • The behavior was filmed for 10 minutes, under white light, using a Basler acA1920-155 um USB 3.0 camera. Each film was recorded (Basler Video Recording Software V1.3) and then analyzed. For each concentration of the compositions used, the number of pairs of flies was, respectively, 2, 5, 2, 2, 2 and 6, 6, 4, 4. • A negative control was carried out comprising only the solvent, i.e. paraffin oil, in order to verify the absence of an effect of the solvent on the flies.
A courtship percentage was calculated, and represents the time during which the male courts the female during the 10 minutes of observation (recording). The different steps consist in movement of the wings (rapid “buzzing” and/or vertical vibrations), face movements, lateral movements, “dances” in rapid circles and in the direction of the female (Benelli, J. Insect Beahv 2012 [6] and Ménagé Cindy, personal communication).

Row | Compound | time elapsed leading to anesthesia (Drosophila suzukii [1]; female flies (FIG. 17)) | time elapsed leading to anesthesia (Drosophila suzukii [1]; male flies and female flies) | time elapsed leading to anesthesia (Drosophila melanogaster; female flies) | time elapsed leading to anesthesia (Drosophila melanogaster; male flies) | proportion of courtship of males towards females (Drosophila suzukii [2]; 0.5% (v/v) in paraffin oil) | proportion of courtship of males towards females (Drosophila suzukii [2]; 1% (v/v) in paraffin oil) | courtship of males towards females (Bactrocera oleae; 2% in solvent, flies aged 3 to 6 days, compared with solvent alone) | courtship of males towards females (Bactrocera oleae; 2% in solvent, flies aged 13 to 19 days, compared with solvent alone) | courtship of males towards females (Bactrocera oleae; 4% in solvent, flies aged 3 to 6 days) | courtship of males towards females (Bactrocera oleae; 5% in solvent, flies aged 3 to 6 days) | courtship of males towards females (Bactrocera oleae; 5% in solvent, flies aged 13 to 19 days, compared with solvent alone)
1 | CCCC(=O)O [butyric acid] | approximately 5 minutes | approximately 5 minutes | approximately 17 minutes | approximately 5 minutes | significantly reduced | significantly reduced | – | – | – | – | –
2 | CCC(=O)O [propionic acid] | approximately 4 minutes | approximately 4 minutes | approximately 5 minutes | approximately 3 minutes | significantly reduced | significantly reduced | significantly reduced | significantly reduced | virtually nonexistent | virtually nonexistent | significantly reduced

From US20220347085A1, “REPELLENT COMPOSITION AND USES” (Université Bourgogne, priority 2019, published 2022)
